Assay results reported in patent EP0525960B1, “Use of rapamycin for the treatment of adult T-cell leukemia/lymphoma” (AMERICAN HOME PRODUCTS CORPORATION, priority 1991, dated 1993).

Legend:
Assay type in all cases: cell-based
[1] = test system: MALN; assay: Inhibition of ATL cell proliferation (tritiated thymidine incorporation); details: Homo sapiens, 24 hours, read-out: PERCENT INHIBITION OF ATL CELL PROLIFERATION
Procedure: (§1) The effect of rapamycin on ATL was established in an in vitro standard pharmacological test procedure using ten human HTLV-1 transformed T-cell lines cultured from ATL patients. These cell lines are presently the best models for ATL in humans. Cyclosporin A (CsA) was also evaluated for the purpose of comparison. The procedure used and results obtained are described below.
(§2) ATL cell lines were established according to known literature procedures. ATL5S, ATL3I, and ATL1K were established according to the method of Hoshino [Proc. Natl. Acad. Sci, 80: 6061(1983)]. The cell lines 31008, 31009, 31016 and AT(EGG) were established from peripheral blood of HTLV-1 infected individuals via co-culture with cord blood lymphocytes. The cell line MALN was isolated from lymphoid tumor tissue of an HTLV-1 infected ATL patient seen at Jackson Memorial/University of Miami Medical Center. [Harrington, W.J., Jr., J. Acq. Imm. Def. Dis., 4: 284 (1991)]. The primary cultures BL and GP were initiated from peripheral blood of ATL patients. The MALN, BL, and GP cell lines were initiated without co-cultivation.
(§3) Cells were adjusted to a concentration of 1x10⁶ cells/mL in RPMI 1640 with 15% fetal bovine serum and were supplemented with 50 U/mL penicillin, 50 µg/mL streptomycin, and 2 mM glutamine. […] Drug concentrations evaluated ranged from 1µM to 100 fM. Cultures were incubated at 37°C, 5% CO₂ for 24 hours followed by a 4 hr. pulse with 0.5 µCi of tritiated thymidine. Thymidine incorporation was measured by liquid scintillation counting, and the results expressed in counts per minute (cpm). The results obtained from the mean of four evaluations at each concentration were compared with control values to determine percent inhibition. The following formula was used to calculate the percent inhibition: Percent Inhibition =(cpm[no drug] - cpm[drug])/(cpm[no drug])x 100 [formula] The percent inhibition obtained with rapamycin is shown in the following table.

[2] = test system: ATL1K; assay: as above; details: Homo sapiens, 24 hours, read-out: PERCENT INHIBITION OF ATL CELL PROLIFERATION
Procedure: as §1, §2, §3

[3] = test system: BL; assay: as above; details: Homo sapiens, 24 hours, read-out: PERCENT INHIBITION OF ATL CELL PROLIFERATION
Procedure: as §1, §2, §3

[4] = test system: 31016; assay: as above; details: Homo sapiens, 24 hours, read-out: PERCENT INHIBITION OF ATL CELL PROLIFERATION
Procedure: as §1, §2, §3

[5] = test system: 31008; assay: as above; details: Homo sapiens, 24 hours, read-out: PERCENT INHIBITION OF ATL CELL PROLIFERATION
Procedure: as §1, §2, §3

[6] = test system: GP; assay: as above; details: Homo sapiens, 24 hours, read-out: PERCENT INHIBITION OF ATL CELL PROLIFERATION
Procedure: as §1, §2, §3

[7] = test system: ATL3I; assay: as above; details: Homo sapiens, 24 hours, read-out: PERCENT INHIBITION OF ATL CELL PROLIFERATION
Procedure: as §1, §2, §3

[8] = test system: ATEGG; assay: as above; details: Homo sapiens, 24 hours, read-out: PERCENT INHIBITION OF ATL CELL PROLIFERATION
Procedure: as §1, §2, §3

[9] = test system: ten human HTLV-1 transformed T-cell lines; assay: Inhibition of ATL cell proliferation, summary over the panel of ten cell lines; details: in 4 of the cell lines at a concentration of 1 nM, read-out: reduction in proliferation
Procedure: as §1
as §2, with “The MALN, BL, and GP cell lines were initiated without co-cultivation.” left out
Cells were adjusted to a concentration of 1x10⁶ cells/mL in RPMI 1640 with 15% fetal bovine serum and were supplemented with 50 U/mL penicillin, 50 µg/mL streptomycin, and 2 mM glutamine. […] Drug concentrations evaluated ranged from 1µM to 100 fM. […] Thymidine incorporation was measured by liquid scintillation counting, and the results expressed in counts per minute (cpm). […]

[10] = test system: ATL5S; assay: Inhibition of ATL cell proliferation (tritiated thymidine incorporation); details: Homo sapiens, 24 hours, read-out: PERCENT INHIBITION OF ATL CELL PROLIFERATION
Excerpt: as §2
(§4) Cells were adjusted to a concentration of 1x10⁶ cells/mL in RPMI 1640 with 15% fetal bovine serum and were supplemented with 50 U/mL penicillin, 50 µg/mL streptomycin, and 2 mM glutamine. […] Drug concentrations evaluated ranged from 1µM to 100 fM. Cultures were incubated at 37°C, 5% CO₂ for 24 hours followed by a 4 hr. pulse with 0.5 µCi of tritiated thymidine. Thymidine incorporation was measured by liquid scintillation counting, and the results expressed in counts per minute (cpm).

[11] = test system: 31009; assay: as above; details: Homo sapiens, 24 hours, read-out: PERCENT INHIBITION OF ATL CELL PROLIFERATION
Excerpt: as §2, §4

CO[C@H]1C[C@@H]2CC[C@@H](C)[C@@](O)(O2)C(=O)C(=O)N2CCCC[C@H]2C(=O)O[C@H]([C@H](C)C[C@@H]2CC[C@@H](O)[C@H](OC)C2)CC(=O)[C@H](C)/C=C(\C)[C@@H](O)[C@@H](OC)C(=O)[C@H](C)C[C@H](C)/C=C/C=C/C=C/1C [Rapamycin]
inhibition at 1 pM ([1]; Rapamycin Concentration 1 pM): 36% | inhibition at 10 pM ([1]; Rapamycin Concentration 10 pM): 26% | inhibition at 0.0001 µM ([1]; Rapamycin Concentration 100 pM): 37% | inhibition at 0.001 µM ([1]; Rapamycin Concentration 1 nM): 43% | inhibition at 0.01 µM ([1]; Rapamycin Concentration 10 nM): 41% | inhibition at 0.1 µM ([1]; Rapamycin Concentration 100 nM): 54% | inhibition at 1 µM ([1]; Rapamycin Concentration 1 µM): 55% | inhibition at 100 fM ([1]; Rapamycin Concentration 100 fM): 36% | inhibition at 1 pM ([2]; Rapamycin Concentration 1 pM): 15% | inhibition at 10 pM ([2]; Rapamycin Concentration 10 pM): 12% | inhibition at 0.0001 µM ([2]; Rapamycin Concentration 100 pM): 23% | inhibition at 0.001 µM ([2]; Rapamycin Concentration 1 nM): 26% | inhibition at 0.01 µM ([2]; Rapamycin Concentration 10 nM): 18% | inhibition at 0.1 µM ([2]; Rapamycin Concentration 100 nM): 32% | inhibition at 1 µM ([2]; Rapamycin Concentration 1 µM): 19% | inhibition at 100 fM ([2]; Rapamycin Concentration 100 fM): 15% | inhibition at 1 pM ([3]; Rapamycin Concentration 1 pM): 56% | inhibition at 10 pM ([3]; Rapamycin Concentration 10 pM): 55% | inhibition at 0.0001 µM ([3]; Rapamycin Concentration 100 pM): 65% | inhibition at 0.001 µM ([3]; Rapamycin Concentration 1 nM): 73% | inhibition at 0.01 µM ([3]; Rapamycin Concentration 10 nM): 76% | inhibition at 0.1 µM ([3]; Rapamycin Concentration 100 nM): 79% | inhibition at 1 µM ([3]; Rapamycin Concentration 1 µM): 80% | inhibition at 100 fM ([3]; Rapamycin Concentration 100 fM): 51% | inhibition at 1 pM ([4]; Rapamycin Concentration 1 pM): 50% | inhibition at 10 pM ([4]; Rapamycin Concentration 10 pM): 47% | inhibition at 0.0001 µM ([4]; Rapamycin Concentration 100 pM): 49% | inhibition at 0.001 µM ([4]; Rapamycin Concentration 1 nM): 48% | inhibition at 0.01 µM ([4]; Rapamycin Concentration 10 nM): 49% | inhibition at 0.1 µM ([4]; Rapamycin Concentration 100 nM): 56% | inhibition at 1 µM ([4]; Rapamycin Concentration 1 µM): 59% | inhibition at 100 fM ([4]; Rapamycin Concentration 100 fM): 44% | inhibition at 1 pM ([5]; Rapamycin Concentration 1 pM): 30% | inhibition at 10 pM ([5]; Rapamycin Concentration 10 pM): 31% | inhibition at 0.0001 µM ([5]; Rapamycin Concentration 100 pM): 45% | inhibition at 0.001 µM ([5]; Rapamycin Concentration 1 nM): 54% | inhibition at 0.01 µM ([5]; Rapamycin Concentration 10 nM): 58% | inhibition at 0.1 µM ([5]; Rapamycin Concentration 100 nM): 68% | inhibition at 1 µM ([5]; Rapamycin Concentration 1 µM): 69% | inhibition at 100 fM ([5]; Rapamycin Concentration 100 fM): 29% | inhibition at 1 pM ([6]; Rapamycin Concentration 1 pM): 20% | inhibition at 10 pM ([6]; Rapamycin Concentration 10 pM): 14% | inhibition at 0.0001 µM ([6]; Rapamycin Concentration 100 pM): 39% | inhibition at 0.001 µM ([6]; Rapamycin Concentration 1 nM): 42% | inhibition at 0.01 µM ([6]; Rapamycin Concentration 10 nM): 46% | inhibition at 0.1 µM ([6]; Rapamycin Concentration 100 nM): 46% | inhibition at 1 µM ([6]; Rapamycin Concentration 1 µM): 54% | inhibition at 100 fM ([6]; Rapamycin Concentration 100 fM): 23% | inhibition at 1 pM ([7]; Rapamycin Concentration 1 pM): 11% | inhibition at 10 pM ([7]; Rapamycin Concentration 10 pM): 6% | inhibition at 0.0001 µM ([7]; Rapamycin Concentration 100 pM): 11% | inhibition at 0.001 µM ([7]; Rapamycin Concentration 1 nM): 18% | inhibition at 0.01 µM ([7]; Rapamycin Concentration 10 nM): 15% | inhibition at 0.1 µM ([7]; Rapamycin Concentration 100 nM): 17% | inhibition at 1 µM ([7]; Rapamycin Concentration 1 µM): 28% | inhibition at 100 fM ([7]; Rapamycin Concentration 100 fM): 7% | inhibition at 1 pM ([8]; Rapamycin Concentration 1 pM): 48% | inhibition at 10 pM ([8]; Rapamycin Concentration 10 pM): 44% | inhibition at 0.0001 µM ([8]; Rapamycin Concentration 100 pM): 49% | inhibition at 0.001 µM ([8]; Rapamycin Concentration 1 nM): 53% | inhibition at 0.01 µM ([8]; Rapamycin Concentration 10 nM): 45% | inhibition at 0.1 µM ([8]; Rapamycin Concentration 100 nM): 60% | inhibition at 1 µM ([8]; Rapamycin Concentration 1 µM): 58% | inhibition at 100 fM ([8]; Rapamycin Concentration 100 fM): 44% | inhibition at 0.001 µM [9]: 50% | inhibition at 1 pM ([10]; Rapamycin Concentration 1 pM): 14% | inhibition at 10 pM ([10]; Rapamycin Concentration 10 pM): 38% | inhibition at 0.0001 µM ([10]; Rapamycin Concentration 100 pM): 47% | inhibition at 0.001 µM ([10]; Rapamycin Concentration 1 nM): 48% | inhibition at 0.01 µM ([10]; Rapamycin Concentration 10 nM): 49% | inhibition at 0.1 µM ([10]; Rapamycin Concentration 100 nM): 58% | inhibition at 1 µM ([10]; Rapamycin Concentration 1 µM): 59% | inhibition at 100 fM ([10]; Rapamycin Concentration 100 fM): 36% | inhibition at 1 pM ([11]; Rapamycin Concentration 1 pM): 59% | inhibition at 10 pM ([11]; Rapamycin Concentration 10 pM): 47% | inhibition at 0.0001 µM ([11]; Rapamycin Concentration 100 pM): 61% | inhibition at 0.001 µM ([11]; Rapamycin Concentration 1 nM): 68% | inhibition at 0.01 µM ([11]; Rapamycin Concentration 10 nM): 67% | inhibition at 0.1 µM ([11]; Rapamycin Concentration 100 nM): 70% | inhibition at 1 µM ([11]; Rapamycin Concentration 1 µM): 71% | inhibition at 100 fM ([11]; Rapamycin Concentration 100 fM): 60%
